The conditions of data set [1]: cited from earlier work.
The next data set deals with rats. To be noted: cited from earlier work.
Data set [2] deals with bronchial epithelium. As to the kind of experiment: Examples 2 and 3: cyclohexanol vapor inhalation, whole-body autoradiography after [14C] NNN. The class given is in vivo, C57BL/6J mouse. To be noted: inhaled 5 min. On the procedure:
The mouse was kept in the closed beaker for about five minutes as the bottom of the beaker was maintained at 50° C. in a water bath. […] Handbook of Chemistry and Physics (1979) at D-203 to D-217.
One hour later, the mouse was anesthetized lightly by ether and frozen by immersion in dry ice/hexane. […] Control experiments were conducted for comparison purposes and radioactivity was detected in the respiratory epithelium in the controls.
Example 2 was duplicated, except that the mouse was kept in the closed beaker for five minutes as the bottom of the beaker was maintained at 26° C. in a water bath. […] After injection as in Example 2, the mouse was processed in the same manner as in Example 2.

For data set [3], the system named is human exposure. To be noted: cited from earlier work.
Data set [4] concerns human exposure. Put plainly: OSHA time weighted average (TWA) exposure limit. To be noted: TWA 200 mg/m^3. From the text:
On the other hand, the quantity of alcohol transferred and inhaled by the smoker must be at a safe amount and less than the maximum volumetric concentrations permitted for each alcohol by any applicable government regulation, such as in the United States those of the U.S. Occupational Safety and Health Administration (OSHA) Time Weighted Average (TWA). Other helpful guidelines are published by the Flavoring Extract Manufacturers' Association (Generally Regarded As Safe list), and the Hunter Committee from Great Britain. If a substance has not been evaluated in the literature, the toxicity of that substance (alcohol) should be evaluated before use. Compounds or alcohols herein are analyzed individually and the toxicity of a mixture of compounds is assumed to be the toxicity of the most toxic individual substance in the compound. It is expected that 1-1000 micrograms (and more particularly approximately 800 micrograms) of the blocking alcohol(s) would be needed on the rag tobacco for a cigarette containing 400-1200 milligrams (and more particularly approximately 800 milligrams) of tobacco. Yet another way of defining the quantity of alcohol is its concentration in air, which should be about 0.1% to 0.001% (see Example 3, supra). […]

The test system of data set [5] is nitrosamines such as NNN and metabolites thereof in mammalian tissues. As to the kind of experiment: Inhibition of selective localization of nitrosamines (general statements). The class given is in vivo. Particulars: qualitative statement.
For a further data set, the system named is tissue macromolecules. Particulars: cited from earlier work; for metabolic activation: rats, hamsters and monkeys; for binding of metabolites to macromolecules: tracheobronchial and nasal mucosa, kidney, liver, sublingual and submaxillary glands, esophagus, melanin of the eye.
The subject of the next data set is rodents. To be noted: cited from earlier work; for carcinogenicity: rat, in vivo.
Data set [6] has as its system formation of nitrosamines on epithelial membranes. Particulars: cited from earlier work.
Data set [7] has as its system periportal and central areas of the liver. To be noted: oral intubation 20 min before [14C] NNN. On the procedure: (§1) One hour later, the mice were anesthetized lightly with ether and frozen by immersion in dry ice/hexane. Twenty u-thick whole-body sagittal sections of the frozen mice were taken onto Scotch tape and were then processed for whole-body autoradiography by known methods. See W. Waddell et al, Drug Fate and Metabolism: Methods and Techniques, E.R. Garrett and J. L. Hirtz, Eds. […] Photometric density in areas of the developed autoradiographs was measured with an ADG Instruments photometer and a photocell with an aperture of three mm lying on the easel of a photographic enlarger. The X-ray film was placed in the enlarger and raised to produce a magnification of thirty-five times on the easel.
(§2) NNN. […] (Twenty minutes is the average time it takes for alcohols introduced by oral intubation into mice to reach the peak blood level.)
(§3) The number within each bar thereof represents the dose in g/kg of that alcohol which was administered orally twenty minutes before the [^14 C] NNN was given intravenously. The mice were frozen one hour after receiving the [^14 C] NNN. The means for each mouse were from fifteen measurements on random areas of that site (five absorbancies on each of three autoradiographs) after setting blood in each on zero. The control value is the mean from six mice; the n-butanol at 1 g/kg is from two mice; the other means are from one mouse.

The test system of another data set is salivary duct epithelium. To be noted: oral intubation 20 min before [14C] NNN. On the procedure: as §1, §2, §3
For data set [8], the system named is bronchial epithelium. Put plainly: Example 1: whole-body autoradiography, inhibition of localization of [14C] NNN radioactivity in bronchial epithelium. The class given is in vivo, C57BL/6J mice. To be noted: for dose relation of reduction in photometric density: oral alcohols. On the procedure:
as §1, §2, §3

Another data set has as its system nitrosamine localization. As to the kind of experiment: Examples 4 and 5: intraperitoneal imidazole, whole-body autoradiography after [14C] NNN. The class given is in vivo, C57BL/6J mouse. The method, then:
An adult male C57BL/6J mouse was injected intraperitoneally with 0.02 ml/g body weight of a solution of imidazole in water. The imidazole solution concentration was such that 0.05 g of imidazole was delivered per kg of body weight. […] See Example 1.
Example 4 was duplicated except that the adult mouse was injected intraperitoneally with 0.02 ml/g body weight of a solution of imidazole in water, wherein the solution concentration was such that 0.25 g of imidazole was delivered per kg of body weight.

In a further data set the test system is adult human. To be noted: cited from earlier work.
The next data set concerns tumor development. Particulars: cited from earlier work.

Entries after “also recorded” stand apart in the source; their conditions may differ. Where two headings read alike, the source gives them in different places.

For the molecule `CC(O)CCO` (stereo not drawn) [1,3 Butanediol], the “Vapor Pressure” value in [1] (20° C.) was “.06 mmHg”.
Consider `CCC(CC)CO` [2-Ethyl butyl alcohol], for which the “Vapor Pressure” value in data set [1] (20° C.) is 0.9 mmHg.
With `CC(C)CC(C)O` (stereo not drawn) [4-methyl-2-pentanol], the “Acute Oral LD50” value in the data set on rats (rats, oral) was 2600 mg/kg.
Turning to `CCCCCCC(C)O` (stereo not drawn) [Capryl alcohol], the “Vapor Pressure” value in data set [1] (32.8° C.) is 1 mmHg.
`CCCCCCCCCCCCCCCCO` [Cetyl alcohol]: the “Acute Oral LD50” value in the data set with rats (rats, oral) is 20000 mg/kg. The “Vapor Pressure” value in [1] (122.7° C.) is given as 1 mmHg.
For `OCC=Cc1ccccc1` [Cinnamyl alcohol], the “Vapor Pressure” value in data set [1] (72.6° C.) is on record as 1 mmHg.
Regarding `OC1CCCCC1` [Cyclohexanol], the “Acute Oral LD50” value in the data set on rats (rats, oral) is 2060 mg/kg. Moreover, the “radioactivity in bronchial epithelium” value in the data set on bronchial epithelium [2] (26° C., 0.001% in air) is “No radioactivity was detected”; with bronchial epithelium [2] (50° C., 0.01% in air), “No radioactivity was detected”. Further, in the data set with human exposure [3] (8 h work day, 40 h work week), the “Toxicity (TWA OSHA)” value was 200 mg/m^3. Besides, in the data set on human exposure [3] (eight continuous hours), the “atmosphere concentration considered safe by OSHA” value is “two hundred”. In addition, the “concentration in cigarette smoke at TWA limit of OSHA” value with human exposure [4] turned out to be 63 micrograms/cigarette. The “Vapor Pressure” value in [1] (21° C.) is reported as 1 mmHg.
Turning to `CCCCCCCCCCCCO` [Lauryl alcohol], the “Vapor Pressure” value in [1] (91° C.) is 1 mmHg.
`CC1CCC(C(C)C)C(O)C1` (stereo not drawn) [Menthol, reference compound]: the “Acute Oral LD50” value in the data set with rats (rat, in vivo, po) was 3180 mg/kg. The “inhibition of nitrosamine localization” value in data set [5] is “does not have the nitrosamine blocking effect; also recorded: does not inhibit nitrosamine localization”. The “Vapor Pressure” value in data set [1] (56° C.) is on record as 1 mmHg.
As for `CN(CCCC(=O)c1cccnc1)N=O` [NNK, 4(methylnitrosamino)-1-(3-pyridyl)-1-butanone], in the data set with tissue macromolecules, the metabolic activation result is given as “most likely starts with a-carbon hydroxylation” and the “binding of metabolites to macromolecules” value is “bind to macromolecules”. For the same molecule, the carcinogenicity result with rodents is reported as “powerful environmental carcinogens”.
In the case of `O=NN1CCCC1c1cccnc1` (stereo not drawn) [NNN, Nnitrosonornicotine], in the data set with tissue macromolecules (F-344 rat esophagus vs other tissues), the metabolism entry is “preferentially catalyzes hydroxylation at the a-carbon of NNN adjacent to the pyridine ring”. Also, in the data set on tissue macromolecules, the metabolic activation result is “most likely starts with a-carbon hydroxylation” and the “binding of metabolites to macromolecules” value is listed as “bind to macromolecules”. Besides, in the data set with tissue macromolecules (whole-body autoradiography, adult male C57BL/6J mice, [14C] NNN), the “retention of radioactivity vs sites of tumor formation” value is given as “striking correlation”. In the data set on rodents (F-344 rats, drinking water), the tumor induction entry was “esophageal tumors have been induced”. Besides, the “sites of tumor formation” value with rodents (nasal cavity, salivary duct, esophagus, bronchial epithelium and liver) is recorded as “induces tumor formation at five sites”. Besides, the carcinogenicity entry with rodents is “powerful environmental carcinogens”. The carcinogenesis result in the data set with rodents (rodents, olfactory epithelium, lung, salivary glands) is “induce carcinogenesis in the olfactory epithelium, lung, salivary glands”.
For the molecule `CC(C)(O)C(C)(C)O` [Pinacol], the “Vapor Pressure” value in data set [1] (44° C.) is recorded as 1 mmHg.
`CCCCCCCCCCCCCCCCCCO` [Stearyl alcohol]: in [1] (50° C.), the “Vapor Pressure” value is 1 mmHg.
Take `O=C1O[C@H]([C@@H](O)CO)C(O)=C1O` [Vitamin C]: the “formation of nitrosamines on epithelial membranes” value in data set [6] is given as “prevent the formation of nitrosamines”.
In the case of `S=C=NCc1ccccc1` [benzylisothiocyanate], the “inhibition of nitrosamine localization” value in data set [5] was “found to delocalize nitrosamines”.
The same measure, in the same setting: the value for `C[S+](C)[O-]` [dimethylsulfoxide (DMSO), dimethylsulfoxide] was “found to delocalize nitrosamines”.
Consider `CCO` [ethanol], for which the “Acute Oral LD50” value with rats (rats, oral) is 14000 mg/kg. For the same molecule, the “reduction of localization of radioactivity in periportal and central areas of the liver” value in data set [7] is “reduced”. In addition, the “reduction of localization of radioactivity in salivary duct epithelium” value in the data set with salivary duct epithelium is listed as “reduced”. In the data set with bronchial epithelium [8], the “dose relation of reduction in photometric density” value (from here on “dose relation of reduction”) is listed as “dose related”. Besides, the “reduction of localization of radioactivity in bronchial epithelium” value in the data set with bronchial epithelium [8] (oral intubation 20 min before [14C] NNN, ethanol 1 and 5 g/kg, butanols 0.2 and 1 g/kg) was “reduced”.
For the molecule `c1c[nH]cn1` [imidazole], the “inhibition of nitrosamine localization” value in [5] was “found to delocalize nitrosamines”. Also, the “nitrosamine delocalization relative to control mouse” value with nitrosamine localization (0.05 g/kg intraperitoneal, 20 min before [14C] NNN) was “Significant nitrosamine delocalization”; in the data set on nitrosamine localization (0.25 g/kg intraperitoneal), “significant delocalization of nitrosamine”.
In the case of `CCCCCCCCCCO` [n-Decyl alcohol], in data set [1] (69.5° C.), the “Vapor Pressure” value was 1 mmHg.
For the molecule `CCCCCCCCCO` [n-Nonyl alcohol], the “Vapor Pressure” value in data set [1] (59.5° C.) is 1 mmHg.
On to `CCCCCO` [n-amyl, n-amyl alcohol], for which the “Acute Oral LD50” value in the data set with rats (rat, in vivo, po) was 3030 mg/kg.
`CCCCO` [n-butanol]: the “Acute Oral LD50” value in the data set on rats (rats, oral) is 790 mg/kg. Moreover, the “dose relation of reduction” value with bronchial epithelium [8] is recorded as “dose related”.
Consider `CN1CCCC1c1cccnc1` (stereo not drawn) [nicotine], for which the “estimated acutely fatal oral dose” value in the data set with adult human is reported as “one”.
In the case of `c1cn[nH]c1` [pyrazole], the “inhibition of nitrosamine localization” value in data set [5] is “found to delocalize nitrosamines”.
On to `CC1=C(/C=C/C(C)=C/C=C/C(C)=C/CO)C(C)(C)CCC1` [retinol, reference compound], for which the “Acute Oral LD50” value in the data set with rats (rat, in vivo, po) is 2000 mg/kg.
On to `CC(C)(C)O` [t-butanol], for which the “localization of [14C] NNN in bronchial epithelium” value in the data set on bronchial epithelium [8] (at the high dosage (1 g/kg), oral) was “almost completely abolished”. The “inhibition ranking in bronchial epithelium (FIG. 1)” value in the data set with bronchial epithelium [8] (comparison of ethanol, n-butanol, t-butanol) was “greatest inhibition”. Further, in the data set with bronchial epithelium [8], the “dose relation of reduction” value is on record as “dose related”.
In the case of Dipropylene glycol monomethyl, in data set [1] (20° C.), the “Vapor Pressure” value is “.3 mmHg”.
On to Methyl cyclohexanol, for which the “Vapor Pressure” value in data set [1] (30° C.) is on record as 1.5 mmHg.
As to Vitamin A, in the data set on tumor development, the tumor development entry was “inhibit tumor development”.
As for Vitamin E, the “formation of nitrosamines on epithelial membranes” value in [6] is on record as “prevent the formation of nitrosamines”.

These data come from US4966169A, “Process for manufacturing cigarettes” (priority 1988, dated 1990).
